Results published in paper PMC10726465, “Synthesis and Evaluation of Small Molecule Inhibitors of the Androgen Receptor N-Terminal Domain” (ACS Medicinal Chemistry Letters, 2023).

molecular target: T1, androgen receptor (AR) (Homo sapiens, UniProt P10275); conditions: from VCaP GRE2-luciferase IC50
T1 sequence (P10275 1-920): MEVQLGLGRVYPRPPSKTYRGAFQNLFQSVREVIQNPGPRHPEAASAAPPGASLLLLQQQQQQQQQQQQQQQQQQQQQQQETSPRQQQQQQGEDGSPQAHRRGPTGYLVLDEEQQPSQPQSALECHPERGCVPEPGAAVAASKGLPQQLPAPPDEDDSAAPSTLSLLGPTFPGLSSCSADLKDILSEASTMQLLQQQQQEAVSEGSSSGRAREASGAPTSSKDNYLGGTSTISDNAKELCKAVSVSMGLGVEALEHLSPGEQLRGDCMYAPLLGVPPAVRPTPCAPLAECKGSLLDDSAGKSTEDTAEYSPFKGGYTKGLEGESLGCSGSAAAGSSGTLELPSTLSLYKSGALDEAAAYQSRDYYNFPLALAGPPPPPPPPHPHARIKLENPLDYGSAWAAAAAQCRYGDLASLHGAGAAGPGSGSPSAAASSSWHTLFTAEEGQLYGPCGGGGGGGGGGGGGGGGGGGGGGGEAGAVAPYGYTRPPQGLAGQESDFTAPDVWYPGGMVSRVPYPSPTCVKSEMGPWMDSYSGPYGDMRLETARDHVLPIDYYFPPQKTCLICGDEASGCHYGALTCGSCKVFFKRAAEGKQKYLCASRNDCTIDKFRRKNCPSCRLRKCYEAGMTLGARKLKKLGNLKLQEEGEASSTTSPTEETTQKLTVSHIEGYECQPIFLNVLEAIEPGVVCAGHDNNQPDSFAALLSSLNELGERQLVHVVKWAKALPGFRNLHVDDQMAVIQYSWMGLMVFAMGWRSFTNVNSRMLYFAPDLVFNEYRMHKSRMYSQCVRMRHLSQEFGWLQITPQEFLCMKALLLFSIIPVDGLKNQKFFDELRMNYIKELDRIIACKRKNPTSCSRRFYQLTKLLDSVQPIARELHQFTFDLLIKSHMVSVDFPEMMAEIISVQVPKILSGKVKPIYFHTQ
Protocol: VCaP cells, obtained from the American Type Culture Collection, were maintained in Dulbecco’s Modified Eagles Medium (DMEM) supplemented with 10% foetal bovine serum. Cells were maintained at 37°C without antibiotics in a humidified atmosphere
Transient transfection and Luciferase Activity Assay:
Cells at 70–80% confluence in 24 well plates, were transferred to DMEM
300ng/well of the firefly reporter plasmid, GRE2-TATA-luc using JetPEI (PolyPLUS Transfection) according to the manufacturers’ protocol.
replaced with fresh DMEM +5% CSS containing either DMSO (vehicle control) or 0– 30 µM small molecules together with 1nM DHT. Twenty four hours later, medium was aspirated, cells were washed with PBS and extracted with Passive Lysis Buffer
Cell debris was removed by centrifugation at 13,000 xg for 5min and supernatants collected. Luciferase activity was measured in triplicate, using an in-house luciferase assay buffer (13 mM MgSO4 7H2O, 30 mM
amount of total cellular protein.
Inhibition of hormone-dependent expression of prostate specific antigen (PSA):
VCaP prostate cells were treated with 1 nM DHT in the absence or presence of inhibitor. After 24 hours cells were harvested and PSA detected by Western blotting and normalised against β-actin.
Luciferase activity in cells treated with small molecules was determined as a percentage of the untreated control, which was set at 100%. Plots of activity against small molecule concentration (log) were analysed in GraphPad PRISM 5 and IC50 values for each small molecule determined.

Ligand Efficiency (LE)	Compound
0.63	COc1ccc(-c2cc(C(N)=O)ccc2SC)cc1F [Compound 29]
0.77	CSc1ccc(C(N)=O)cc1-c1cncnc1 [Compound 24]
0.49	COc1ccc(C(N)=O)cc1-c1ccc2c(cnn2C)c1 [Compound 46]
0.43	Cn1ncc2cc(-c3cc(C(N)=O)ccc3NCCCN3CCOCC3)ccc21 [Compound 56]
0.44	Cn1ncc2cc(-c3cc(C(N)=O)ccc3SCc3ccccc3)ccc21 [Compound 40]
0.59	CSc1ccc(C(N)=O)cc1-c1ccc2[nH]ncc2c1 [Compound 12]
0.70	CSc1ccc(C(N)=O)cc1-c1ccno1 [Compound 7]
0.63	CSc1ccc(C(N)=O)cc1-c1ccc2occc2c1 [Compound 25]
0.63	CSc1ccc(C(N)=O)cc1-c1c(C)noc1C [Compound 10]
0.62	CSc1ccc(C(=O)N2CCCCC2)cc1-c1cncnc1 [Compound 59]
0.80	CSc1ccc(C(=O)O)cc1-c1cncnc1 [Compound 58]
0.38	Cn1ncc2cc(-c3cc(C(N)=O)cnc3SCc3ccccc3)ccc21 [Compound 35]
0.60	CSc1c(F)cc(C(N)=O)cc1-c1ccc2c(cnn2C)c1 [Compound 38]
0.41	Cn1ncc2cc(-c3cc(C(N)=O)ccc3N3CCOCC3)ccc21 [Compound 53]
0.52	CSc1ccc(C(N)=O)cc1-c1ccc2ocnc2c1 [Compound 26]
0.72	CSc1ccc(C(N)=O)cc1-c1ccc(F)c(O)c1 [Compound 33]
0.62	CSc1ccc(C(N)=O)cc1-c1ccc2[nH]cnc2c1 [Compound 15]
0.60	CSc1ccc(C(=O)N2CCOCC2)cc1-c1cncnc1 [Compound 60]
0.79	CSc1ccc(C(N)=O)cc1-c1cccs1 [Compound 9]
0.66	CSc1ccc(C(N)=O)cc1-c1ccc2c(ccn2C)c1 [Compound 17]
0.46	Cn1ncc2cc(-c3cc(C(N)=O)ccc3NCc3ccccc3)ccc21 [Compound 52]
0.49	COc1ncc(C(N)=O)cc1-c1ccc2c(cnn2C)c1 [Compound 37]
0.59	CSc1ccc(C(N)=O)cc1-c1ccc2ncccc2c1 [Compound 20]

same assay, conditions: from VCaP GRE2-luciferase IC50 and cLogP

Lipophilic Ligand Efficiency (LLE)	Compound
6.2	COc1ccc(-c2cc(C(N)=O)ccc2SC)cc1F [Compound 29]
8.2	CSc1ccc(C(N)=O)cc1-c1cncnc1 [Compound 24]
5.8	COc1ccc(C(N)=O)cc1-c1ccc2c(cnn2C)c1 [Compound 46]
7.5	Cn1ncc2cc(-c3cc(C(N)=O)ccc3NCCCN3CCOCC3)ccc21 [Compound 56]
4.9	Cn1ncc2cc(-c3cc(C(N)=O)ccc3SCc3ccccc3)ccc21 [Compound 40]
6.6	CSc1ccc(C(N)=O)cc1-c1ccc2[nH]ncc2c1 [Compound 12]
6.7	CSc1ccc(C(N)=O)cc1-c1ccno1 [Compound 7]
5.9	CSc1ccc(C(N)=O)cc1-c1ccc2occc2c1 [Compound 25]
6.2	CSc1ccc(C(N)=O)cc1-c1c(C)noc1C [Compound 10]
6.8	CSc1ccc(C(=O)N2CCCCC2)cc1-c1cncnc1 [Compound 59]
8.2	CSc1ccc(C(=O)O)cc1-c1cncnc1 [Compound 58]
4.7	Cn1ncc2cc(-c3cc(C(N)=O)cnc3SCc3ccccc3)ccc21 [Compound 35]
7.3	CSc1c(F)cc(C(N)=O)cc1-c1ccc2c(cnn2C)c1 [Compound 38]
6.1	Cn1ncc2cc(-c3cc(C(N)=O)ccc3N3CCOCC3)ccc21 [Compound 53]
4.6	CSc1ccc(C(N)=O)cc1-c1ccc2ocnc2c1 [Compound 26]
7.3	CSc1ccc(C(N)=O)cc1-c1ccc(F)c(O)c1 [Compound 33]
6.6	CSc1ccc(C(N)=O)cc1-c1ccc2[nH]cnc2c1 [Compound 15]
6.3	CSc1ccc(C(N)=O)cc1-c1cccs1 [Compound 9]
7.0	CSc1ccc(C(N)=O)cc1-c1ccc2c(ccn2C)c1 [Compound 17]
6.2	Cn1ncc2cc(-c3cc(C(N)=O)ccc3NCc3ccccc3)ccc21 [Compound 52]
6.5	COc1ncc(C(N)=O)cc1-c1ccc2c(cnn2C)c1 [Compound 37]
5.9	CSc1ccc(C(N)=O)cc1-c1ccc2ncccc2c1 [Compound 20]

same assay, conditions: read-out: VCaP GRE2-luciferase IC50; VCaP cells, 1 nM DHT, 24 h, 0–30 µM compound

IC50	Compound
760 nM	COc1ccc(-c2cc(C(N)=O)ccc2SC)cc1F [Compound 29]
270 nM	CSc1ccc(C(N)=O)cc1-c1cncnc1 [Compound 24]
> 30000 nM	COc1ccc(C(N)=O)cc1-c1ccc2c(cnn2C)c1 [Compound 46]
800 nM	Cn1ncc2cc(-c3cc(C(N)=O)ccc3NCCCN3CCOCC3)ccc21 [Compound 56]
2200 nM	Cn1ncc2cc(-c3cc(C(N)=O)ccc3SCc3ccccc3)ccc21 [Compound 40]
700 nM	CSc1ccc(C(N)=O)cc1-c1ccc2[nH]ncc2c1 [Compound 12]
7400 nM	CSc1ccc(C(N)=O)cc1-c1ccno1 [Compound 7]
600 nM	CSc1ccc(C(N)=O)cc1-c1ccc2occc2c1 [Compound 25]
4700 nM	CSc1ccc(C(N)=O)cc1-c1c(C)noc1C [Compound 10]
130 nM	CSc1ccc(C(=O)N2CCCCC2)cc1-c1cncnc1 [Compound 59]
120 nM	CSc1ccc(C(=O)O)cc1-c1cncnc1 [Compound 58]
> 30000 nM	Cn1ncc2cc(-c3cc(C(N)=O)cnc3SCc3ccccc3)ccc21 [Compound 35]
240 nM	CSc1c(F)cc(C(N)=O)cc1-c1ccc2c(cnn2C)c1 [Compound 38]
> 30000 nM	Cn1ncc2cc(-c3cc(C(N)=O)ccc3N3CCOCC3)ccc21 [Compound 53]
> 30000 nM	CSc1ccc(C(N)=O)cc1-c1ccc2ocnc2c1 [Compound 26]
120 nM	CSc1ccc(C(N)=O)cc1-c1ccc(F)c(O)c1 [Compound 33]
920 nM	CSc1ccc(C(N)=O)cc1-c1ccc2[nH]cnc2c1 [Compound 15]
260 nM	CSc1ccc(C(=O)N2CCOCC2)cc1-c1cncnc1 [Compound 60]
600 nM	CSc1ccc(C(N)=O)cc1-c1cccs1 [Compound 9]
90 nM	CSc1ccc(C(N)=O)cc1-c1ccc2c(ccn2C)c1 [Compound 17]
940 nM	Cn1ncc2cc(-c3cc(C(N)=O)ccc3NCc3ccccc3)ccc21 [Compound 52]
> 30000 nM	COc1ncc(C(N)=O)cc1-c1ccc2c(cnn2C)c1 [Compound 37]
800 nM	CSc1ccc(C(N)=O)cc1-c1ccc2ncccc2c1 [Compound 20]
